{
  "source": "patent US11267845B2",
  "about": "“Inhibitors of CD73-mediated immunosuppression” (ARCUS BIOSCIENCES, INC., priority 2016, dated 2022)",
  "data": [
    {"target": "T1, CD73 (Homo sapiens, UniProt P21589)", "T1 sequence (P21589 27-549)": "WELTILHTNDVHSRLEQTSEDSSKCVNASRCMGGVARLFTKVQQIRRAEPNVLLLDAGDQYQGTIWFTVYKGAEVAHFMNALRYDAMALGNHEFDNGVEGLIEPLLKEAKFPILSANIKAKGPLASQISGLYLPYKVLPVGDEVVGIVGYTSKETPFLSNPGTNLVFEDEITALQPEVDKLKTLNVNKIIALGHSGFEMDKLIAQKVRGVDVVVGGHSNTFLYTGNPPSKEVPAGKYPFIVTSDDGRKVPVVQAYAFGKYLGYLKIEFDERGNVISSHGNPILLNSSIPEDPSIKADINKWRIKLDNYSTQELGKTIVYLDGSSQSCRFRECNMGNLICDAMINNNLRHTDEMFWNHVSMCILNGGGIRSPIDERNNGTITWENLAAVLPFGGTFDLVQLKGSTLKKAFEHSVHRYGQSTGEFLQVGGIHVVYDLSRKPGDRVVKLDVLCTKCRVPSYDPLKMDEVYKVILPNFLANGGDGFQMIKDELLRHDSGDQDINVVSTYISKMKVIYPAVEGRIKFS", "test": "CD73 inhibition (Potency: CD73 IC50)", "type": "biochemical", "units": {"IC50": "nM"}, "values": [
      {"compound": "O=C(O)CN(C[C@H]1O[C@@H](n2cnc3c(NC4CCCC4)nc(Cl)nc32)[C@H](O)[C@@H]1O)C(=O)CP(=O)(O)O", "note": "[E]", "IC50": "< 100"},
      {"compound": "CN(C[C@H]1O[C@@H](n2cnc3c(NC4CCCC4)nc(Cl)nc32)[C@H](O)[C@@H]1O)C(=O)CP1(=O)Nc2ccccc2CO1", "note": "(stereo partly drawn) [R]", "IC50": "> 1000"},
      {"compound": "CN(C[C@H]1O[C@@H](n2cnc3c(NC4CCCC4)nc(Cl)nc32)[C@H](O)[C@@H]1O)C(=O)CP(=O)(O)Oc1ccccc1", "note": "[V]", "IC50": "> 1000"},
      {"compound": "CN(C[C@H]1O[C@@H](n2cnc3c(N[C@H]4CCOC4)nc(Cl)nc32)[C@H](O)[C@@H]1O)C(=O)CP(=O)(O)OCOC(=O)OCC(C)(C)C", "note": "[AS]", "IC50": "> 1000"},
      {"compound": "CC(C)OC(=O)OCOP(=O)(CC(=O)N(CC1CC1)C[C@H]1O[C@@H](n2cnc3c(NC4CCCC4)nc(Cl)nc32)[C@H](O)[C@@H]1O)OCOC(=O)OC(C)C", "note": "[AJ]", "IC50": "> 1000"},
      {"compound": "CCOC(=O)OCOP(=O)(O)CC(=O)N(C)C[C@H]1O[C@@H](n2cnc3c(NC4CCCC4)nc(Cl)nc32)[C@H](O)[C@@H]1O", "note": "[Z]", "IC50": "> 1000"},
      {"compound": "CC(C)OC(=O)OCOP(=O)(O)CC(=O)N(C)C[C@H]1O[C@@H](n2cnc3c(N[C@H]4CCOC4)nc(Cl)nc32)[C@H](O)[C@@H]1O", "note": "[AN]", "IC50": "> 1000"},
      {"compound": "O=C(CP(=O)(O)O)NC[C@H]1O[C@@H](n2cnc3c(NC4CCCC4)nc(Cl)nc32)[C@H](O)[C@@H]1O", "note": "[A]", "IC50": "100 to 1000"},
      {"compound": "COC(=O)[C@H](C)NP(=O)(CC(=O)N(C)C[C@H]1O[C@@H](n2cnc3c(NC4CCCC4)nc(Cl)nc32)[C@H](O)[C@@H]1O)Oc1ccccc1", "note": "(stereo partly drawn) [N]", "IC50": "> 1000"},
      {"compound": "CCN(C[C@H]1O[C@@H](n2cnc3c(N(C)C4CCCC4)nc(Cl)nc32)[C@H](O)[C@@H]1O)C(=O)CP(=O)(O)O", "note": "[H]", "IC50": "< 100"},
      {"compound": "CN(C[C@H]1O[C@@H](n2cnc3c(NC4CCCC4)nc(Cl)nc32)[C@H](O)[C@@H]1O)C(=O)CP(=O)(Oc1ccccc1)Oc1ccccc1", "note": "[U]", "IC50": "> 1000"},
      {"compound": "CN(C[C@H]1O[C@@H](n2ncc3c(NC4CCCC4)nc(Cl)nc32)[C@H](O)[C@@H]1O)C(=O)CP(=O)(O)O", "note": "[J]", "IC50": "100 to 1000"},
      {"compound": "CC(C)OC(=O)OCOP(=O)(CC(=O)N(C)C[C@H]1O[C@@H](n2cnc3c(N[C@H]4CCOC4)nc(Cl)nc32)[C@H](O)[C@@H]1O)OCOC(=O)OC(C)C", "note": "[AM]", "IC50": "> 1000"},
      {"compound": "CN(C[C@H]1O[C@@H](n2cnc3c(N[C@H]4CCOC4)nc(Cl)nc32)[C@H](O)[C@@H]1O)C(=O)CP(=O)(O)O", "note": "[AL]", "IC50": "100 to 1000"},
      {"compound": "COCCOC(=O)OCOP(=O)(O)CC(=O)N(C)C[C@H]1O[C@@H](n2cnc3c(NC4CCCC4)nc(Cl)nc32)[C@H](O)[C@@H]1O", "note": "[AF]", "IC50": "> 1000"},
      {"compound": "CN(c1nc(Cl)nc2c1ncn2[C@@H]1O[C@H](CN(CC2CC2)C(=O)CP(=O)(O)O)[C@@H](O)[C@H]1O)C1CCCC1", "note": "[I]", "IC50": "< 100"},
      {"compound": "CCN(C[C@H]1O[C@@H](n2cnc3c(NC4CCCC4)nc(Cl)nc32)[C@H](O)[C@@H]1O)C(=O)CP(=O)(O)O", "note": "[C]", "IC50": "< 100"},
      {"compound": "O=C(CP(=O)(O)O)N(CC1CC1)C[C@H]1O[C@@H](n2ncc3c(NC4CCCC4)nc(Cl)nc32)[C@H](O)[C@@H]1O", "note": "[K]", "IC50": "< 100"},
      {"compound": "COCCOC(=O)OCOP(=O)(CC(=O)N(C)C[C@H]1O[C@@H](n2cnc3c(N[C@H]4CCOC4)nc(Cl)nc32)[C@H](O)[C@@H]1O)OCOC(=O)OCCOC", "note": "[AO]", "IC50": "> 1000"},
      {"compound": "CN(C[C@H]1O[C@@H](n2cnc3c(NC4CCCC4)nc(Cl)nc32)[C@H](O)[C@@H]1O)C(=O)CP(=O)(O)O", "note": "[L]", "IC50": "< 100"},
      {"compound": "CN(C[C@H]1O[C@@H](n2cnc3c(NC4CCCC4)nc(Cl)nc32)[C@H](O)[C@@H]1O)C(=O)CP1(=O)OCCC(c2cccc(Cl)c2)O1", "note": "(stereo partly drawn) [Q]", "IC50": "> 1000"},
      {"compound": "COC(=O)OCOP(=O)(CC(=O)N(C)C[C@H]1O[C@@H](n2cnc3c(NC4CCCC4)nc(Cl)nc32)[C@H](O)[C@@H]1O)OCOC(=O)OC", "note": "[AA]", "IC50": "> 1000"},
      {"compound": "O=C(CP(=O)(O)O)N(CC1CC1)C[C@H]1O[C@@H](n2cnc3c(NC4CCCC4)nc(Cl)nc32)[C@H](O)[C@@H]1O", "note": "[AI]", "IC50": "< 100"},
      {"compound": "CC(C)OC(=O)[C@H](C)NP(=O)(CC(=O)N(C)C[C@H]1O[C@@H](n2cnc3c(NC4CCCC4)nc(Cl)nc32)[C@H](O)[C@@H]1OC(=O)C(C)C)Oc1ccccc1", "note": "(stereo partly drawn) [O]", "IC50": "> 1000"},
      {"compound": "CN(C[C@H]1O[C@@H](n2cnc3c(NC4CCCC4)nc(Cl)nc32)[C@@H](F)[C@@H]1O)C(=O)CP(=O)(O)O", "note": "[G]", "IC50": "> 1000"},
      {"compound": "CC(C)OC(=O)OCOP(=O)(O)CC(=O)N(CC1CC1)C[C@H]1O[C@@H](n2cnc3c(NC4CCCC4)nc(Cl)nc32)[C@H](O)[C@@H]1O", "note": "[AK]", "IC50": "> 1000"},
      {"compound": "COCCOC(=O)OCOP(=O)(CC(=O)N(C)C[C@H]1O[C@@H](n2cnc3c(NC4CCCC4)nc(Cl)nc32)[C@H](O)[C@@H]1O)OCOC(=O)OCCOC", "note": "[AE]", "IC50": "> 1000"},
      {"compound": "CCOC(=O)OCOP(=O)(CC(=O)N(C)C[C@H]1O[C@@H](n2cnc3c(NC4CCCC4)nc(Cl)nc32)[C@H](O)[C@@H]1O)OCOC(=O)OCC", "note": "[Y]", "IC50": "> 1000"},
      {"compound": "CCOC(=O)OCOP(=O)(O)CC(=O)N(C)C[C@H]1O[C@@H](n2cnc3c(N[C@H]4CCOC4)nc(Cl)nc32)[C@H](O)[C@@H]1O", "note": "[AQ]", "IC50": "> 1000"},
      {"compound": "CN(C[C@H]1O[C@@H](n2cnc3c(NC4CCCC4)nc(Cl)nc32)[C@H](O)[C@@H]1O)C(=O)CP(=O)(O)OCOC(=O)C(C)(C)C", "note": "[AH]", "IC50": "> 1000"},
      {"compound": "CN(C[C@H]1O[C@@H](n2cnc3c(NC4CCCC4)nc(Cl)nc32)[C@H](O)[C@@H]1O)C(=O)CP(=O)(OCOC(=O)OCC(C)(C)C)OCOC(=O)OCC(C)(C)C", "note": "[AC]", "IC50": "> 1000"},
      {"compound": "CN(C[C@H]1O[C@@H](n2cnc3c(NC4CCCC4)nc(Cl)nc32)[C@H](O)[C@@H]1O)C(=O)CP(=O)(O)OCOC(=O)OCC(C)(C)C", "note": "[AD]", "IC50": "> 1000"},
      {"compound": "CC(C)OC(=O)OCOP(=O)(O)CC(=O)N(C)C[C@H]1O[C@@H](n2cnc3c(NC4CCCC4)nc(Cl)nc32)[C@H](O)[C@@H]1O", "note": "[X]", "IC50": "> 1000"},
      {"compound": "CCOC(=O)OCOP(=O)(CC(=O)N(C)C[C@H]1O[C@@H](n2cnc3c(N[C@H]4CCOC4)nc(Cl)nc32)[C@H](O)[C@@H]1O)OCOC(=O)OCC", "note": "[AP]", "IC50": "> 1000"},
      {"compound": "CC(C)N(C[C@H]1O[C@@H](n2cnc3c(NC4CCCC4)nc(Cl)nc32)[C@H](O)[C@@H]1O)C(=O)CP(=O)(O)O", "note": "[B]", "IC50": "100 to 1000"},
      {"compound": "CC(C)OC(=O)OCOP(=O)(CC(=O)N(C)C[C@H]1O[C@@H](n2cnc3c(NC4CCCC4)nc(Cl)nc32)[C@H](O)[C@@H]1O)OCOC(=O)OC(C)C", "note": "[W]", "IC50": "> 1000"},
      {"compound": "Cc1cccc2c1NP(=O)(CC(=O)N(C)C[C@H]1O[C@@H](n3cnc4c(NC5CCCC5)nc(Cl)nc43)[C@H](O)[C@@H]1O)OC2", "note": "(stereo partly drawn) [S]", "IC50": "> 1000"},
      {"compound": "CC(C)OC(=O)[C@H](C)NP(=O)(CC(=O)N(C)C[C@H]1O[C@@H](n2cnc3c(NC4CCCC4)nc(Cl)nc32)[C@H](O)[C@@H]1O)N[C@@H](C)C(=O)OC(C)C", "note": "[Example P]", "IC50": "> 1000"},
      {"compound": "O=C(CP(=O)(O)O)N(Cc1ccccc1)C[C@H]1O[C@@H](n2cnc3c(NC4CCCC4)nc(Cl)nc32)[C@H](O)[C@@H]1O", "note": "[D]", "IC50": "< 100"},
      {"compound": "CN(C[C@H]1O[C@@H](n2cnc3c(NC4CCCC4)nc(Cl)nc32)[C@H](O)[C@@H]1O)C(=O)CP1(=O)OCc2ccccc2O1", "note": "(stereo partly drawn) [T]", "IC50": "> 1000"},
      {"compound": "CN(C[C@H]1O[C@@H](n2cnc3c(N[C@H]4CCOC4)nc(Cl)nc32)[C@H](O)[C@@H]1O)C(=O)CP(=O)(OCOC(=O)OCC(C)(C)C)OCOC(=O)OCC(C)(C)C", "note": "[AR]", "IC50": "> 1000"},
      {"compound": "CN(C[C@H]1O[C@@H](n2cnc3c(NC4CCCC4)nc(Cl)nc32)[C@H](O)[C@@H]1O)C(=O)CP(=O)(OCOC(=O)C(C)(C)C)OCOC(=O)C(C)(C)C", "note": "[AG]", "IC50": "> 1000"},
      {"compound": "COC(=O)OCOP(=O)(O)CC(=O)N(C)C[C@H]1O[C@@H](n2cnc3c(NC4CCCC4)nc(Cl)nc32)[C@H](O)[C@@H]1O", "note": "[AB]", "IC50": "> 1000"},
      {"compound": "O=C(CP(=O)(O)O)N(CCO)C[C@H]1O[C@@H](n2cnc3c(NC4CCCC4)nc(Cl)nc32)[C@H](O)[C@@H]1O", "note": "[F]", "IC50": "< 100"},
      {"compound": "CC(C)OC(=O)[C@H](C)NP(=O)(CC(=O)N(C)C[C@H]1O[C@@H](n2cnc3c(NC4CCCC4)nc(Cl)nc32)[C@H](O)[C@@H]1O)Oc1ccccc1", "note": "(stereo partly drawn) [M]", "IC50": "> 1000"}
    ]}
  ]
}
